The values that follow are results of earlier work, collected in patent US10751297B2, “Composition and method for treating skin conditions” (priority 2017, dated 2020).

The subject of data set [1] is acyclovir-resistant HSV strains.
Data set [2] has as its system early viral protein synthesis.
The test system of a further data set is Friend virus. Particulars: in vivo.
Data set [3] deals with respiratory syncytial virus. The note with it: in vitro.
For another data set, the system named is herpes simplex virus. The note with it: in vitro.
The subject of another data set is HIV-1. Particulars: in vitro.

Molecules are shown by their SMILES.

In the case of `CCCCCCCCCCCCCCCCCCCCCCO` [docosanol], in data set [1], the “effectiveness in acyclovir-resistant HSV strains” value was “effective”. The “inhibition of early viral protein synthesis” value in data set [2] is reported as “more than 80%”. Moreover, the “antiviral activity against Friend virus” value in the data set on Friend virus is “potent antiviral activity”. In addition, in the data set on cells, the “concentration up to which not cytotoxic” value was “up to 300 mM”. Besides, the “antiviral activity against respiratory syncytial virus” value in data set [3] is reported as “potent antiviral activity”. In the data set on herpes simplex virus, the “antiviral activity against herpes simplex virus” value is “potent antiviral activity”. Moreover, in the data set with HIV-1, the “antiviral activity against HIV-1” value is “potent antiviral activity”.
